Measurements published in ChEMBL document CHEMBL4177646, “Discovery of novel nitroimidazole enols as Pseudomonas aeruginosa DNA cleavage agents” (Bioorg Med Chem, 2017).
Values after ≈ are worked out from the molar mass of the structure shown.

What was measured:
Type in all cases: functional
Staphylococcus aureus [1] = assay: Antibacterial activity against methicillin-resistant Staphylococcus aureus N315 after 24 hrs by micro broth dilution method; settings: N315, 24 h
Staphylococcus aureus [2] = assay: Antibacterial activity against drug-resistant Staphylococcus aureus after 24 hrs by micro broth dilution method
Staphylococcus aureus [3] = assay: Antibacterial activity against Staphylococcus aureus ATCC 25923 after 24 hrs by micro broth dilution method; settings: ATCC 25923, 24 h
Staphylococcus aureus [4] = assay: Antibacterial activity against Staphylococcus aureus ATCC 29213 after 24 hrs by micro broth dilution method; settings: ATCC 29213, 24 h
Escherichia coli [5] = assay: Antibacterial activity against drug-resistant Escherichia coli after 24 hrs by micro broth dilution method
Escherichia coli [6] = assay: Antibacterial activity against Escherichia coli ATCC 25922 after 24 hrs by micro broth dilution method; settings: ATCC 25922, 24 h
Pseudomonas aeruginosa [7] = assay: Antibacterial activity against drug-resistant Pseudomonas aeruginosa after 24 hrs by micro broth dilution method
Pseudomonas aeruginosa [8] = assay: Antibacterial activity against Pseudomonas aeruginosa ATCC 27853 after 24 hrs by micro broth dilution method; settings: ATCC 27853, 24 h
Candida albicans [9] = assay: Antifungal activity against drug-resistant Candida albicans after 24 hrs by micro broth dilution method
Candida albicans [10] = assay: Antifungal activity against Candida albicans ATCC 90023 after 24 hrs by micro broth dilution method; settings: ATCC 90023, 24 h
Candida tropicalis = assay: Antifungal activity against Candida tropicalis after 24 hrs by micro broth dilution method
Pseudomonas aeruginosa [11] = assay: Potency index, ratio of norfloxacin MIC to compound MIC for Pseudomonas aeruginosa ATCC 27853
Pseudomonas aeruginosa [12] = assay: Potency index, ratio of metronidazole MIC to compound MIC for Pseudomonas aeruginosa ATCC 27853

SMILES | MIC (Staphylococcus aureus [1]) [µM] | MIC (Staphylococcus aureus [2]) [µM] | MIC (Staphylococcus aureus [3]) [µM] | MIC (Staphylococcus aureus [4]) [µM] | MIC (Escherichia coli [5]) [µM] | MIC (Escherichia coli [6]) [µM] | MIC (Pseudomonas aeruginosa [7]) [µM] | MIC (Pseudomonas aeruginosa [8]) [µM] | MIC (Candida albicans [9]) [mg/L] | MIC (Candida albicans [10]) [mg/L] | MIC (Candida tropicalis) [mg/L] | Ratio (Pseudomonas aeruginosa [11]) | Ratio (Pseudomonas aeruginosa [12])
Cc1ncc([N+](=O)[O-])n1/C(=C/c1ccccc1Cl)C(C)O (centres undefined) | 1670 (≈ 514 µg/mL) | 1670 (≈ 514 µg/mL) | 1670 (≈ 514 µg/mL) | 1670 (≈ 514 µg/mL) | 1670 (≈ 514 µg/mL) | 210 (≈ 64.6 µg/mL) | 1670 (≈ 514 µg/mL) | 830 (≈ 255 µg/mL) | 512 (≈ 1660 µM) | 32 (≈ 104 µM) | 512 (≈ 1660 µM) |  | 
Cc1ncc([N+](=O)[O-])n1/C(=C/c1c[nH]c2ccccc12)C(C)O (centres undefined) | 810 (≈ 253 µg/mL) | 1630 (≈ 509 µg/mL) | 410 (≈ 128 µg/mL) | 810 (≈ 253 µg/mL) | 810 (≈ 253 µg/mL) | 410 (≈ 128 µg/mL) | 810 (≈ 253 µg/mL) | 410 (≈ 128 µg/mL) | 512 (≈ 1640 µM) | 128 (≈ 410 µM) | 256 (≈ 820 µM) | 4 - 16 | 
CC(=O)/C(=C\c1ccc(Cl)cc1Cl)n1c([N+](=O)[O-])cnc1C | 1650 (≈ 561 µg/mL) | 1650 (≈ 561 µg/mL) | 830 (≈ 282 µg/mL) | 1650 (≈ 561 µg/mL) | 1650 (≈ 561 µg/mL) | 1650 (≈ 561 µg/mL) | 1650 (≈ 561 µg/mL) | 830 (≈ 282 µg/mL) | 512 (≈ 1510 µM) | 128 (≈ 376 µM) | 512 (≈ 1510 µM) |  | 
CC(=O)/C(=C\c1ccc(N(C)C)cc1)n1c([N+](=O)[O-])cnc1C | 1620 (≈ 509 µg/mL) | 1620 (≈ 509 µg/mL) | 1620 (≈ 509 µg/mL) | 410 (≈ 129 µg/mL) | 810 (≈ 255 µg/mL) | 810 (≈ 255 µg/mL) | 1620 (≈ 509 µg/mL) | 410 (≈ 129 µg/mL) | 512 (≈ 1630 µM) | 128 (≈ 407 µM) | 256 (≈ 814 µM) | 4 - 16 | 
Cc1ncc([N+](=O)[O-])n1/C(=C/c1ccc(C#N)cc1)C(C)O (centres undefined) | 1710 (≈ 510 µg/mL) | 1710 (≈ 510 µg/mL) | 1710 (≈ 510 µg/mL) | 1710 (≈ 510 µg/mL) | 1710 (≈ 510 µg/mL) | 860 (≈ 257 µg/mL) | 1710 (≈ 510 µg/mL) | 860 (≈ 257 µg/mL) | 512 (≈ 1720 µM) | 64 (≈ 215 µM) | 512 (≈ 1720 µM) |  | 
CC(=O)/C(=C\c1ccc(C#N)cc1)n1c([N+](=O)[O-])cnc1C | 1720 (≈ 510 µg/mL) | 1720 (≈ 510 µg/mL) | 860 (≈ 255 µg/mL) | 860 (≈ 255 µg/mL) | 1720 (≈ 510 µg/mL) | 860 (≈ 255 µg/mL) | 430 (≈ 127 µg/mL) | 860 (≈ 255 µg/mL) | 256 (≈ 864 µM) | 128 (≈ 432 µM) | 256 (≈ 864 µM) |  | 
CC(=O)/C(=C\c1ccc(C)cc1)n1c([N+](=O)[O-])cnc1C | 1790 (≈ 511 µg/mL) | 220 (≈ 62.8 µg/mL) | 900 (≈ 257 µg/mL) | 450 (≈ 128 µg/mL) | 900 (≈ 257 µg/mL) | 56 (≈ 16 µg/mL) | 1790 (≈ 511 µg/mL) | 450 (≈ 128 µg/mL) | 512 (≈ 1790 µM) | 256 (≈ 897 µM) | 256 (≈ 897 µM) | 4 - 16 | 
CC(=O)/C(=C\c1ccccc1)n1c([N+](=O)[O-])cnc1C | 1880 (≈ 510 µg/mL) | 940 (≈ 255 µg/mL) | 470 (≈ 127 µg/mL) | 940 (≈ 255 µg/mL) | 940 (≈ 255 µg/mL) | 230 (≈ 62.4 µg/mL) | 470 (≈ 127 µg/mL) | 470 (≈ 127 µg/mL) | 256 (≈ 944 µM) | 32 (≈ 118 µM) | 128 (≈ 472 µM) | 4 - 16 | 
CC(=O)/C(=C\c1ccccc1Cl)n1c([N+](=O)[O-])cnc1C | 1640 (≈ 501 µg/mL) | 1640 (≈ 501 µg/mL) | 820 (≈ 251 µg/mL) | 820 (≈ 251 µg/mL) | 1640 (≈ 501 µg/mL) | 410 (≈ 125 µg/mL) | 830 (≈ 254 µg/mL) | 830 (≈ 254 µg/mL) | 512 (≈ 1670 µM) | 32 (≈ 105 µM) | 64 (≈ 209 µM) |  | 
Cc1ncc([N+](=O)[O-])n1/C(=C/c1ccc(N(C)C)cc1)C(C)O (centres undefined) | 1620 (≈ 513 µg/mL) | 1620 (≈ 513 µg/mL) | 810 (≈ 256 µg/mL) | 1620 (≈ 513 µg/mL) | 1620 (≈ 513 µg/mL) | 810 (≈ 256 µg/mL) | 1620 (≈ 513 µg/mL) | 400 (≈ 127 µg/mL) | 512 (≈ 1620 µM) | 64 (≈ 202 µM) | 128 (≈ 405 µM) | 4 | 7
CC(=O)/C(=C\c1c[nH]c2ccccc12)n1c([N+](=O)[O-])cnc1C | 830 (≈ 258 µg/mL) | 1650 (≈ 512 µg/mL) | 830 (≈ 258 µg/mL) | 830 (≈ 258 µg/mL) | 1650 (≈ 512 µg/mL) | 420 (≈ 130 µg/mL) | 420 (≈ 130 µg/mL) | 420 (≈ 130 µg/mL) | 512 (≈ 1650 µM) | 512 (≈ 1650 µM) | 512 (≈ 1650 µM) | 4 - 16 | 
Cc1ncc([N+](=O)[O-])n1/C(=C/c1ccc(Cl)cc1Cl)C(C)O (centres undefined) | 1500 (≈ 513 µg/mL) | 1500 (≈ 513 µg/mL) | 1500 (≈ 513 µg/mL) | 1500 (≈ 513 µg/mL) | 1500 (≈ 513 µg/mL) | 1500 (≈ 513 µg/mL) | 1500 (≈ 513 µg/mL) | 750 (≈ 257 µg/mL) | 512 (≈ 1500 µM) | 64 (≈ 187 µM) | 256 (≈ 748 µM) |  | 
